Experimental data taken from ChEMBL document CHEMBL3045868, “Synthesis and antibacterial activities of para-alkoxy phenyl--ketoaldehyde derivatives” (Med Chem Res, 2013).

What was measured:
[1] = system: Staphylococcus aureus; assay: Antibacterial activity against Staphylococcus aureus clinical isolate 10 assessed as growth inhibition at pH 9 after 16 to 18 hr by NCCLS agar dilution method; type: functional
[2] = system: Staphylococcus aureus; assay: Antibacterial activity against Staphylococcus aureus clinical isolate 9 assessed as growth inhibition at pH 9 after 16 to 18 hr by NCCLS agar dilution method; type: functional
[3] = system: Staphylococcus aureus; assay: Antibacterial activity against Staphylococcus aureus clinical isolate 7 assessed as growth inhibition at pH 7 after 16 to 18 hr by NCCLS agar dilution method; type: functional
[4] = system: Staphylococcus aureus; assay: Antibacterial activity against Staphylococcus aureus clinical isolate 5 assessed as growth inhibition at pH 7 after 16 to 18 hr by NCCLS agar dilution method; type: functional
[5] = system: Staphylococcus aureus; assay: Antibacterial activity against Staphylococcus aureus clinical isolate 24 assessed as growth inhibition at pH 5 after 16 to 18 hr by NCCLS agar dilution method; type: functional
[6] = system: Staphylococcus aureus; assay: Bactericidal activity against Staphylococcus aureus clinical isolate 4 after 24 hr; type: functional; details: isolate 4, 24 h
[7] = system: Staphylococcus aureus; assay: Bactericidal activity against Staphylococcus aureus clinical isolate 1 after 24 hr; type: functional; details: isolate 1, 24 h
[8] = system: Staphylococcus aureus; assay: Antibacterial activity against Staphylococcus aureus clinical isolate 8 assessed as growth inhibition after 16 to 18 hr by NCCLS agar dilution method; type: functional
[9] = system: Staphylococcus aureus; assay: Antibacterial activity against Staphylococcus aureus clinical isolate 21 assessed as growth inhibition at pH 5 after 16 to 18 hr by NCCLS agar dilution method; type: functional
[10] = system: Staphylococcus aureus; assay: Antibacterial activity against Staphylococcus aureus clinical isolate 24 assessed as growth inhibition at pH 7 after 16 to 18 hr by NCCLS agar dilution method; type: functional
[11] = system: Staphylococcus aureus; assay: Antibacterial activity against Staphylococcus aureus clinical isolate 21 assessed as growth inhibition at pH 7 after 16 to 18 hr by NCCLS agar dilution method; type: functional
[12] = system: Staphylococcus aureus; assay: Antibacterial activity against Staphylococcus aureus clinical isolate 15 assessed as growth inhibition at pH 7 after 16 to 18 hr by NCCLS agar dilution method; type: functional
[13] = system: Staphylococcus aureus; assay: Antibacterial activity against Staphylococcus aureus clinical isolate 12 assessed as growth inhibition at pH 7 after 16 to 18 hr by NCCLS agar dilution method; type: functional
[14] = system: Staphylococcus aureus; assay: Antibacterial activity against Staphylococcus aureus clinical isolate 10 assessed as growth inhibition at pH 7 after 16 to 18 hr by NCCLS agar dilution method; type: functional
[15] = system: Staphylococcus aureus; assay: Antibacterial activity against Staphylococcus aureus clinical isolate 11 assessed as growth inhibition at pH 5 after 16 to 18 hr by NCCLS agar dilution method; type: functional
[16] = system: Staphylococcus aureus; assay: Antibacterial activity against Staphylococcus aureus clinical isolate 10 assessed as growth inhibition at pH 5 after 16 to 18 hr by NCCLS agar dilution method; type: functional
[17] = system: Staphylococcus aureus; assay: Antibacterial activity against Staphylococcus aureus clinical isolate 21 assessed as growth inhibition at pH 9 after 16 to 18 hr by NCCLS agar dilution method; type: functional
[18] = system: Staphylococcus aureus; assay: Antibacterial activity against Staphylococcus aureus clinical isolate 19 assessed as growth inhibition at pH 9 after 16 to 18 hr by NCCLS agar dilution method; type: functional
[19] = system: Staphylococcus aureus; assay: Antibacterial activity against Staphylococcus aureus clinical isolate 15 assessed as growth inhibition at pH 9 after 16 to 18 hr by NCCLS agar dilution method; type: functional
[20] = system: Staphylococcus aureus; assay: Antibacterial activity against Staphylococcus aureus clinical isolate 6 assessed as growth inhibition after 16 to 18 hr by NCCLS agar dilution method; type: functional
[21] = system: Staphylococcus aureus; assay: Antibacterial activity against Staphylococcus aureus clinical isolate 4 assessed as growth inhibition after 16 to 18 hr by NCCLS agar dilution method; type: functional
[22] = system: Staphylococcus aureus; assay: Antibacterial activity against Staphylococcus aureus clinical isolate 3 assessed as growth inhibition after 16 to 18 hr by NCCLS agar dilution method; type: functional
[23] = system: Staphylococcus aureus; assay: Antibacterial activity against Staphylococcus aureus clinical isolate 7 assessed as growth inhibition at pH 9 after 16 to 18 hr by NCCLS agar dilution method; type: functional
[24] = system: Staphylococcus aureus; assay: Antibacterial activity against Staphylococcus aureus clinical isolate 5 assessed as growth inhibition at pH 9 after 16 to 18 hr by NCCLS agar dilution method; type: functional
[25] = system: Staphylococcus aureus; assay: Antibacterial activity against Staphylococcus aureus clinical isolate 4 assessed as growth inhibition at pH 9 after 16 to 18 hr by NCCLS agar dilution method; type: functional
[26] = system: Helicobacter pylori; assay: Antibacterial activity against Helicobacter pylori 05-9 assessed as growth inhibition after 16 to 18 hr NCCLS agar dilution method; type: functional
[27] = system: Helicobacter pylori; assay: Antibacterial activity against Helicobacter pylori 05-5 assessed as growth inhibition after 16 to 18 hr NCCLS agar dilution method; type: functional
[28] = system: Helicobacter pylori; assay: Antibacterial activity against Helicobacter pylori 05-4 assessed as growth inhibition after 16 to 18 hr NCCLS agar dilution method; type: functional, 05-Apr
[29] = system: Helicobacter pylori; assay: Antibacterial activity against Helicobacter pylori 05-1 assessed as growth inhibition after 16 to 18 hr NCCLS agar dilution method; type: functional
[30] = system: Escherichia coli; assay: Antibacterial activity against Escherichia coli ATCC 25922 assessed as growth inhibition after 16 to 18 hr NCCLS agar dilution method; type: functional
[31] = system: Staphylococcus aureus; assay: Antibacterial activity against Staphylococcus aureus ATCC 25923 assessed as growth inhibition after 16 to 18 hr by NCCLS agar dilution method; type: functional
[32] = system: Helicobacter pylori; assay: Antibacterial activity against Helicobacter pylori 06-5 assessed as growth inhibition after 16 to 18 hr NCCLS agar dilution method; type: functional
[33] = system: Staphylococcus aureus; assay: Antibacterial activity against Staphylococcus aureus clinical isolate 17 assessed as growth inhibition at pH 5 after 16 to 18 hr by NCCLS agar dilution method; type: functional
[34] = Acute toxicity in KM Mus musculus (mouse) administered through intragastrically measured for 1 week; type: organism-based; details: in vivo, po
[35] = system: Staphylococcus aureus; assay: Antibacterial activity against Staphylococcus aureus clinical isolate 13 assessed as growth inhibition at pH 5 after 16 to 18 hr by NCCLS agar dilution method; type: functional
[36] = system: Staphylococcus aureus; assay: Bactericidal activity against Staphylococcus aureus clinical isolate 9 after 24 hr; type: functional; details: isolate 9, 24 h
[37] = system: Staphylococcus aureus; assay: Antibacterial activity against Staphylococcus aureus clinical isolate 3 assessed as growth inhibition at pH 5 after 16 to 18 hr by NCCLS agar dilution method; type: functional
[38] = system: Staphylococcus aureus; assay: Antibacterial activity against Staphylococcus aureus clinical isolate 1 assessed as growth inhibition at pH 5 after 16 to 18 hr by NCCLS agar dilution method; type: functional
[39] = system: Staphylococcus aureus; assay: Bactericidal activity against methicillin-resistant Staphylococcus aureus after 24 hr; type: functional
[40] = system: Staphylococcus aureus; assay: Bactericidal activity against methicillin-resistant Staphylococcus aureus isolate 2 after 24 hr; type: functional; details: isolate 2, 24 h
[41] = system: Staphylococcus aureus; assay: Antibacterial activity against methicillin-resistant Staphylococcus aureus assessed as growth inhibition after 16 to 18 hr by NCCLS agar dilution method; type: functional
[42] = system: Staphylococcus aureus; assay: Antibacterial activity against methicillin-resistant Staphylococcus aureus isolate 5 assessed as growth inhibition after 16 to 18 hr by NCCLS agar dilution method; type: functional
[43] = system: Staphylococcus aureus; assay: Antibacterial activity against methicillin-resistant Staphylococcus aureus isolate 2 assessed as growth inhibition after 16 to 18 hr by NCCLS agar dilution method; type: functional

CO/N=C/CC(=O)c1ccc(OC)cc1
16 µg/mL: MIC [4] | MIC [8] | MIC [11] | MIC [16] | MIC [18] | MIC [21] | MIC [28] | MIC [33]
64 µg/mL: MIC [5] | MIC [26] | MIC [38]
2 µg/mL: MIC [31]
8 µg/mL: MIC [1] | MIC [2] | MIC [3] | MIC [10] | MIC [12] | MIC [17] | MIC [19] | MIC [20] | MIC [22] | MIC [23] | MIC [24] | MIC [25] | MIC50 [41] | MIC90 [41] | MIC [42] | MIC [43]
> 64 µg/mL: MIC [30]
5000 mg/kg: MTD at 168 h [34]
32 µg/mL: MIC [9] | MIC [13] | MIC [14] | MIC [15] | MIC [27] | MIC [29] | MIC [32] | MIC [35] | MIC [37]
128 µg/mL: MBC [6] | MBC [7] | MBC [36]
256 µg/mL: MBC50 [39] | MBC90 [39] | MBC [40]
